# Assay results reported in PubChem BioAssay AID1918944 (Molecular Pharmacology Branch, DTP, NCI, 2023).
# “And” between values parts separate entries of the source, which are not always exact repeats. Equal values may be shown once.
# Test system: 786-0 complex spheroid viability
# Assay: Anticancer human tumor 786-0 cell line growth inhibition;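 note: spheroids exposed to agents for seven days before readout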
# Conditions: for viability, T/C: stronger effect = lower value
# Description: Multicellular complex tumor spheroid response to LSD1 Inhibitor Iadademstat in combination with a variety of drugs and investigational agents in selected tumor cell lines
# The current study was undertaken to assess response to LSD1 inhibitors in combination with standard-of-care drugs and investigational agents in solid tumor complex spheroid models as well as in the K-562 leukemia. Complex spheroids include a stromal component modeled by human endothelial cells (HUVEC) and fibroblasts modeled by human mesenchymal stem cells (MSCs). The concentration ranges selected for each drug and investigational agent were based upon clinically achievable concentrations if the clinical Cmax of the agent was known.
# Compounds. The drugs and investigational agents used in this study are listed on Table 1. All of the agents used, including staurosporine (NSC755774) and gemcitabine (NSC613327), were obtained from the Developmental Therapeutics Program, NCI. FDA-approved anticancer drugs are available from the NCI at http://dtp.nci.nih.gov/branches/dscb/oncology_drugset_explanation.html. Drugs and investigational agents were >95% pure by proton nuclear magnetic resonance (NMR) and liquid chromatography/mass spectrometry (LC/MS). Stock solutions were prepared at 400x in DMSO, stored at -70 degrees C, and diluted in fresh medium prior to their use. The final concentration of DMSO in cell culture wells never exceeded 0.25% (v/v). The FDA-approved anticancer drug set is available from the Developmental Therapeutics Program at https://dtp.cancer.gov/organization/dscb/obtaining/available_plates.htm. All drugs and investigational agents were tested over a range starting from a high concentration at or near the clinical Cmax and decreasing in half-log increments. If the clinical Cmax for an agent had not been determined, the highest concentration tested was 10 microM.
# Cell Lines. The patient-derived cancer cell (PDC) lines: 292921-168-R-J2-PDC, K24384-001-R-PDC, and 521955-158-R2-J5-PDC pancreatic carcinomas, 556581-035-R-J1 ovarian carcinoma, 324938-238-R-J1-PDC, 855422-203-R-J1-PDC and 883617-216-R-J1-PDC urothelial bladder carcinomas, 743489-274-T-PDC renal cell carcinoma, 138582-R-J1 Merkel cell tumor, K60290-347-R-J1 and K57222-313-R-J1-PDC glioblastomas, 653999-131-R-J2-PDC, LG0703-F948-PDC, and 349418-098-R-PDC non-small cell lung carcinomas, 885512-296-R-J2-PDC, 171881-019-R-J1-PDC breast carcinomas and 186277-243-T-J2-PDC and 233499-124-R-J2-PDC colon carcinomas were obtained from the NCI Patient-Derived Models Repository (PDMR, https://pdmr.cancer.gov). The established cell lines NCI/ADR-RES (RRID:CVCL_14520 and OVCAR-5 (RRID:CVCL_1628) ovarian carcinomas, 786-O (RRID:CVCL_1051) and A498 (RRID:CVCL_A498) renal cell carcinoma, NCI-H211 (ATCC, cat. CRL-5824; RRID:CVCL_1529), NCI-H196 (ATCC, cat. CRL-5823, RRID:CVCL_1509), SW 1271 (ATCC, cat. CRL-2177, RRID:CVCL_1716) and NCI-H1876 (ATCC, cat. CRL-5902, RRID:CVCL_1503) small cell lung carcinomas, MDA-MB-231 (RRID:CVCL_0062) and MDA-MB-468 (RRID:CVCL_0419)breast carcinomas (10-12). Pooled donor human umbilical vein endothelial cells (HUVEC, Lonza, cat. CC-2519) and human mesenchymal stem cells (hMSC, Lonza, cat. PT-2501) were purchased from Lonza (Walkersville, MD).
# Cell Culture. All cells were maintained in an incubator at 37 degrees C and 5% CO2 with 95% humidity. The PDC lines were cultured according to standard operating procedures established by the NCI PDMR (https://pdmr.cancer.gov). Briefly all PDCs were thawed and cultured in Matrigel-coated flasks prepared with a working solution of 1X Ham's F-12 nutrient mix, without supplementation (Invitrogen, Waltham, MA, cat. 11765054), 100 U/mL penicillin-streptomycin (Invitrogen, cat. 15140122), and 2.5% Matrigel (Corning Inc., Corning, NY, cat. 354248) for the first three passages. […]
# [1] = curve of first compound, second compound 0.1 µM
# [2] = curve of first compound, second compound 0.316 µM
# [3] = curve of first compound, second compound 1 µM
# [4] = curve of first compound, second compound 3.16 µM
# [5] = curve of first compound, second compound 10 µM
smiles,measurement,setting,value
COc1cc(C2c3cc4c(cc3C(OC3OC5COC(C)OC5C(O)C3O)C3COC(=O)C23)OCO4)cc(OC)c1O (configuration not stated),"viability, T/C",compound 0.00949 µM,103% and 96%
same,"viability, T/C",compound 0.03 µM,96.4% and 94.6%
same,"viability, T/C",compound 0.0949 µM,63.6% and 72.1%
same,"viability, T/C",compound 0.3 µM,49.5% and 53.4%
same,"viability, T/C",compound 0.949 µM,23.1% and 38.4%
same,"viability, T/C",compound 3 µM,11.1% and 21.9%
same,IC50,curve of compound,241 nM and 396 nM
CC(C)CC(NC(=O)C(Cc1ccccc1)NC(=O)c1cnccn1)B(O)O (configuration not stated) + NC1CCC(NC2CC2c2ccccc2)CC1,IC50,[1],2.81 nM
same,IC50,[2],2.56 nM
same,IC50,[3],2.56 nM
same,IC50,[4],2.25 nM
same,IC50,[5],1.95 nM
same,"viability, T/C","second compound 0.1 µM, first compound 0.000316 µM",122%
same,"viability, T/C","second compound 0.1 µM, first compound 0.001 µM",114%
same,"viability, T/C","second compound 0.1 µM, first compound 0.00316 µM",42.6%
same,"viability, T/C","second compound 0.1 µM, first compound 0.01 µM",2.11%
same,"viability, T/C","second compound 0.1 µM, first compound 0.0316 µM",0.17%
same,"viability, T/C","second compound 0.1 µM, first compound 0.1 µM",0.14%
same,"viability, T/C","second compound 0.316 µM, first compound 0.000316 µM",115%
same,"viability, T/C","second compound 0.316 µM, first compound 0.001 µM",110%
same,"viability, T/C","second compound 0.316 µM, first compound 0.00316 µM",36.6%
same,"viability, T/C","second compound 0.316 µM, first compound 0.01 µM",3.06%
same,"viability, T/C","second compound 0.316 µM, first compound 0.0316 µM",0.46%
same,"viability, T/C","second compound 0.316 µM, first compound 0.1 µM",0.16%
same,"viability, T/C","second compound 1 µM, first compound 0.000316 µM",117%
same,"viability, T/C","second compound 1 µM, first compound 0.001 µM",113%
same,"viability, T/C","second compound 1 µM, first compound 0.00316 µM",35.9%
same,"viability, T/C","second compound 1 µM, first compound 0.01 µM",6.05%
same,"viability, T/C","second compound 1 µM, first compound 0.0316 µM",0.96%
same,"viability, T/C","second compound 1 µM, first compound 0.1 µM",0.23%
same,"viability, T/C","second compound 3.16 µM, first compound 0.000316 µM",106%
same,"viability, T/C","second compound 3.16 µM, first compound 0.001 µM",102%
same,"viability, T/C","second compound 3.16 µM, first compound 0.00316 µM",28.2%
same,"viability, T/C","second compound 3.16 µM, first compound 0.01 µM",5.87%
same,"viability, T/C","second compound 3.16 µM, first compound 0.0316 µM",0.76%
same,"viability, T/C","second compound 3.16 µM, first compound 0.1 µM",0.29%
same,"viability, T/C","second compound 10 µM, first compound 0.000316 µM",92.1%
same,"viability, T/C","second compound 10 µM, first compound 0.001 µM",86.1%
same,"viability, T/C","second compound 10 µM, first compound 0.00316 µM",24%
same,"viability, T/C","second compound 10 µM, first compound 0.01 µM",3.66%
same,"viability, T/C","second compound 10 µM, first compound 0.0316 µM",1.18%
same,"viability, T/C","second compound 10 µM, first compound 0.1 µM",0.23%
O=C(C=Cc1cccc(S(=O)(=O)Nc2ccccc2)c1)NO + NC1CCC(NC2CC2c2ccccc2)CC1,IC50,[1],942 nM
same,IC50,[2],1020 nM
same,IC50,[3],912 nM
same,IC50,[4],653 nM
same,IC50,[5],446 nM
same,"viability, T/C","second compound 0.1 µM, first compound 0.00949 µM",112%
same,"viability, T/C","second compound 0.1 µM, first compound 0.03 µM",109%
same,"viability, T/C","second compound 0.1 µM, first compound 0.0949 µM",107%
same,"viability, T/C","second compound 0.1 µM, first compound 0.3 µM",99.6%
same,"viability, T/C","second compound 0.1 µM, first compound 0.949 µM",49.6%
same,"viability, T/C","second compound 0.1 µM, first compound 3 µM",6.03%
same,"viability, T/C","second compound 0.316 µM, first compound 0.00949 µM",113%
same,"viability, T/C","second compound 0.316 µM, first compound 0.03 µM",111%
same,"viability, T/C","second compound 0.316 µM, first compound 0.0949 µM",112%
same,"viability, T/C","second compound 0.316 µM, first compound 0.3 µM",104%
same,"viability, T/C","second compound 0.316 µM, first compound 0.949 µM",53.2%
same,"viability, T/C","second compound 0.316 µM, first compound 3 µM",5.39%
same,"viability, T/C","second compound 1 µM, first compound 0.00949 µM",107%
same,"viability, T/C","second compound 1 µM, first compound 0.03 µM",107%
same,"viability, T/C","second compound 1 µM, first compound 0.0949 µM",110%
same,"viability, T/C","second compound 1 µM, first compound 0.3 µM",92.8%
same,"viability, T/C","second compound 1 µM, first compound 0.949 µM",48.7%
same,"viability, T/C","second compound 1 µM, first compound 3 µM",5.27%
same,"viability, T/C","second compound 3.16 µM, first compound 0.00949 µM",96%
same,"viability, T/C","second compound 3.16 µM, first compound 0.03 µM",101%
same,"viability, T/C","second compound 3.16 µM, first compound 0.0949 µM",93.8%
same,"viability, T/C","second compound 3.16 µM, first compound 0.3 µM",81.9%
same,"viability, T/C","second compound 3.16 µM, first compound 0.949 µM",34.8%
same,"viability, T/C","second compound 3.16 µM, first compound 3 µM",6.76%
same,"viability, T/C","second compound 10 µM, first compound 0.00949 µM",80.5%
same,"viability, T/C","second compound 10 µM, first compound 0.03 µM",77%
same,"viability, T/C","second compound 10 µM, first compound 0.0949 µM",76.4%
same,"viability, T/C","second compound 10 µM, first compound 0.3 µM",60.7%
same,"viability, T/C","second compound 10 µM, first compound 0.949 µM",29.1%
same,"viability, T/C","second compound 10 µM, first compound 3 µM",2.25%
